Source: patent publication US11878965B2, “Inhibitors of peptidylarginine deiminases” (Gilead Sciences, Inc., priority 2020, dated 2024)
pIC50: −log10 of the molar value.

target: human PAD4 (Homo sapiens (Human), UniProt Q9UM07); test: In Vitro PAD4 BAEE Biochemical Assay; conditions: human PAD4, BAEE substrate; 5 nM PAD4, 2 mM calcium chloride, 3 mM BAEE; geometric mean of multiple experiments
Procedure, shortened: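 Recombinant human PAD4 (His-SUMO tag removed, E. coli-expressed), 5 nM, preincubated with compound and 2 mM CaCl2 30 min at 25 °C in MOPS pH 7.6 with DTT; 3 mM BAEE added for 2 h at 25 °C, EDTA stop. Released ammonia detected by o-phthalaldehyde/DTT fluorescence (ex 405, em 535 nm).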

Sequence of human PAD4 (Q9UM07 2-663): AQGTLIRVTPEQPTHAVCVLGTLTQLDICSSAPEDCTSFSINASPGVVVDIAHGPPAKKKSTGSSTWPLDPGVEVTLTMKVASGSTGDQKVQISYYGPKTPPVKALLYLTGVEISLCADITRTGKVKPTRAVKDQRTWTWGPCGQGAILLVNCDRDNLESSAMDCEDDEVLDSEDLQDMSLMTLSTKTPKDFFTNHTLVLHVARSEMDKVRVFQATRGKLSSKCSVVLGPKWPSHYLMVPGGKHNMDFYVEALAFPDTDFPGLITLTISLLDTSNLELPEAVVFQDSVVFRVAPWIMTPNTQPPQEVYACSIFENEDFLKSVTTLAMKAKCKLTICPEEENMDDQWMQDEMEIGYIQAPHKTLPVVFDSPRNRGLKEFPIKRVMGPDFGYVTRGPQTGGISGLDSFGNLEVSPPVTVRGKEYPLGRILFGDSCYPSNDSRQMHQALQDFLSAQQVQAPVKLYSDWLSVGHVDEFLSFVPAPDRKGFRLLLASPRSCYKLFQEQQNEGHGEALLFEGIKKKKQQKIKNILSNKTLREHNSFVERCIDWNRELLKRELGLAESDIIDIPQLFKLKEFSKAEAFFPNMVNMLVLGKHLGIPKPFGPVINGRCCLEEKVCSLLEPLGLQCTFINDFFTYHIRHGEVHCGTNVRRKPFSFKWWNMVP

`COc1cc(C(=O)N2[C@H]3CC[C@@H]2[C@H](N)C3)cc2nc(-c3cc4ccc([C@@H](C)NC(=O)N5CC(O)C5)nc4n3CC3CC3)n(C)c12` [Example 236, N-((R)-1-(2-(5-((1R,2R,4S)-2-amino-7-azabicyclo[2.2.1]heptane-7-carbonyl)-7-methoxy-1-methyl-1H-benzo[d]imidazol-2-yl)-1-(cyclopropylmethyl)-1H-pyrrolo[2,3-b]pyridin-6-yl)ethyl)-3-hydroxyazetidine-1-carboxamide] and `COc1cc(C(=O)N2[C@H]3CC[C@@H]2[C@H](N)C3)cc2nc(-c3cc4ccc([C@@H](C)NS(C)(=O)=O)nc4n3CC3CC3)n(C)c12` [Example 243, N-((R)-1-(2-(5-((1R,2R,4S)-2-amino-7-azabicyclo[2.2.1]heptane-7-carbonyl)-7-methoxy-1-methyl-1H-benzo[d]imidazol-2-yl)-1-(cyclopropylmethyl)-1H-pyrrolo[2,3-b]pyridin-6-yl)ethyl)methanesulfonamide] are within 0.2 log units of each other in pIC50: 7.29 for the first, 7.28 for the second.

Going from `COc1cc(C(=O)N2[C@H]3CC[C@@H]2[C@H](N)C3)cc2nc(-c3cc4ccc([C@@H](C)NC(=O)N5CC[C@@H](F)C5)cc4n3CC3CC3)n(C)c12` [Example 237, (R)-N-((R)-1-(2-(5-((1R,2R,4S)-2-amino-7-azabicyclo[2.2.1]heptane-7-carbonyl)-7-methoxy-1-methyl-1H-benzo[d]imidazol-2-yl)-1-(cyclopropylmethyl)-1H-indol-6-yl)ethyl)-3-fluoropyrrolidine-1-carboxamide] to `COc1cc(C(=O)N2[C@H]3CC[C@@H]2[C@H](N)C3)cc2nc(-c3cc4ccc([C@@H](C)NS(=O)(=O)c5cnn(C)c5)nc4n3CC3CC3)n(C)c12` [Example 241, N-((R)-1-(2-(5-((1R,2R,4S)-2-amino-7-azabicyclo[2.2.1]heptane-7-carbonyl)-7-methoxy-1-methyl-1H-benzo[d]imidazol-2-yl)-1-(cyclopropylmethyl)-1H-pyrrolo[2,3-b]pyridin-6-yl)ethyl)-1-methyl-1H-pyrazole-4-sulfonamide], the pIC50 falls from 7.73 to 7.12 (0.61 log units).

Compared with `C[C@@H](NC(=O)N(C)C)c1ccc2cc(-c3nc4cc(C(=O)N[C@H]5CNCC[C@@H]5F)c(F)cc4n3C)n(CC3CC3)c2n1` [Example 239, 2-(1-(cyclopropylmethyl)-6-((R)-1-(3,3-dimethylureido)ethyl)-1H-pyrrolo[2,3-b]pyridin-2-yl)-6-fluoro-N-((3S,4S)-4-fluoropiperidin-3-yl)-1-methyl-1H-benzo[d]imidazole-5-carboxamide], `CCCS(=O)(=O)N[C@H](C)c1ccc2cc(-c3nc4cc(C(=O)N5[C@H]6CC[C@@H]5[C@H](N)C6)cc(OC)c4n3C)n(CC3CC3)c2n1` [Example 240, N—((R)-1-(2-(5-((1R,2R,4S)-2-amino-7-azabicyclo[2.2.1]heptane-7-carbonyl)-7-methoxy-1-methyl-1H-benzo[d]imidazol-2-yl)-1-(cyclopropylmethyl)-1H-pyrrolo[2,3-b]pyridin-6-yl)ethyl)propane-1-sulfonamide] is 0.40 log units higher in pIC50: 6.78 for the first, 7.18 for the second. The second is the more potent here.

Going from `COc1cc(C(=O)N2[C@H]3CC[C@@H]2[C@H](N)C3)cc2nc(-c3cc4ccc([C@@H](C)NS(=O)(=O)c5ccc(F)cc5)nc4n3CC3CC3)n(C)c12` [Example 242, N-((R)-1-(2-(5-((1R,2R,4S)-2-amino-7-azabicyclo[2.2.1]heptane-7-carbonyl)-7-methoxy-1-methyl-1H-benzo[d]imidazol-2-yl)-1-(cyclopropylmethyl)-1H-pyrrolo[2,3-b]pyridin-6-yl)ethyl)-4-fluorobenzenesulfonamide] to `COc1cc(C(=O)N2[C@H]3CC[C@@H]2[C@H](N)C3)cc2nc(-c3cc4ccc([C@@H](C)N5CCCC5=O)nc4n3CC3CC3)n(C3CC3)c12` [Example 245], the pIC50 rises from 6.97 to 7.50 (0.53 log units).

With `COc1cc(C(=O)N2CCC[C@@H](N)C2)cc2nc(-c3cc4ccc([C@@H](C)N5CCCC5=O)nc4n3CC3CC3)n(C3CC3)c12` [Example 244, 1-((R)-1-(2-(5-((R)-3-aminopiperidine-1-carbonyl)-1-cyclopropyl-7-methoxy-1H-benzo[d]imidazol-2-yl)-1-(cyclopropylmethyl)-1H-pyrrolo[2,3-b]pyridin-6-yl)ethyl)pyrrolidin-2-one] the pIC50 was 7.31.
